# Like-named read-outs stand apart in the source and are kept apart here.
# Legend:
# [1] = test system: influenza A2 virus, Hong Kong strain; experiment: antiviral potency against influenza A2 virus, Hong Kong strain, in tissue culture (baby hamster kidney cell line); assay type: cell-based; conditions: for log reduction at 3 µg/mL / log reduction at 10 µg/mL: read-out: Log Decrease in Infectivity of Virus Inoculum
# Description: Well established methodology of the prior art was employed to determine the antiviral potency of compounds against influenza A2 virus, Hong Kong strain, in tissue cultures, employing the baby hamster kidney cell line (see R. L. Muldoon, L. Mezny and G. G. Jackson in Antimicrobial Agents and Chemotherapy 2:224-228, 1972). Virus infectivity was evaluated by both hemagglutination techniques and cytopathogenic effects, with identical results for each method. In Table 1 below, the virus-inhibiting effects of two low drug concentrations, 3 and 10 μg/ml, are depicted. Results are given as the log decrease in infectivity of the virus inoculum. A log decrease of 4.0 is the maximum obtainable, representing complete suppression of virus growth in the system. The virus inoculum of day 0 was always 100 times that amount required to kill 50% of the tissue culture cells (100 TCD50).
# herpes simplex virus = experiment: organism not typed; assay type: cell-based
# [2] = test system: influenza A2/Hong Kong disease; experiment: suppression of influenza A2/Hong Kong disease in mice; assay type: in vivo; conditions: infected treated, 40 mg/Kg orally, at 8 days
# influenza A/PR/8 = experiment: prevention of death in mice ill with a lethal influenza A/PR/8 infection; assay type: in vivo; conditions: once 90 minutes before infection; for % of Population Protected / % Mortality: 8 days; for % Mortality: control 95; for Mortality Frequency at 8 Days: control 42/44
# Description: The above medication was also examined for its capacity to prevent death in mice ill with a lethal influenza A/PR/8 infection. The drug was given subcutaneously at 3 dose levels, once 90 minutes before infection.
# [3] = 3 μg/ml, inoculum 100 TCD50, 4.0 is the maximum obtainable
# [4] = 10 μg/ml, inoculum 100 TCD50, 4.0 is the maximum obtainable
# [5] = herpes simplex virus, tissue culture
compound,measurement,setting,value
"3-O-2'-(N',N'-dimethylaminopropyl)-D-glucopyranose",Log Decrease in Infectivity of Virus Inoculum,[1]; [3],1.0 log
same,Log Decrease in Infectivity of Virus Inoculum,[1]; [4],2.0 log
same,Concentration required to exert 50% inhibition of herpes-induced plaque formation,herpes simplex virus,3 µg/mL
same,Concentration required to exert 100% inhibition of herpes-induced plaque formation,herpes simplex virus,> 20 µg/mL
"CN1CCC(O[C@@H]2[C@H]3OC(C)(C)O[C@H]3O[C@@H]2[C@H]2COC(C)(C)O2)CC1 [1,2,5,6-di-O--isopropylidene-3-O--4'-(N--methyl-piperidyl)-D-glucofuranose]",IC50,"herpes simplex virus; read-out: Concentration required to exert 50% inhibition of herpes-induced plaque formation, herpes simplex virus, tissue culture",< 3 µg/mL
"CCN(CC)CCOC1C(C2COC(C)(C)O2)OC2OC(C)(C)OC21 [1,2:5,6-di-O-isopropylidene-3-O-2'-(N',N'-diethylaminoethyl)-D-glucofuranose]",Concentration required to exert 50% inhibition of herpes-induced plaque formation,herpes simplex virus; [5],6 µg/mL
same,Concentration required to exert 100% inhibition of herpes-induced plaque formation,herpes simplex virus; [5],30 µg/mL
"CCN(CC)CCO[C@H]1[C@H](O)[C@@H](CO)OC(O)[C@@H]1O (stereo partly drawn) [3-O-2'-(N',N'-diethylaminoethyl)-D-glucose]",log reduction at 3 µg/mL,[1]; [3],0.5
same,log reduction at 10 µg/mL,[1]; [4],1
"CN(C)CCO[C@H]1[C@H](O)[C@@H](CO)OC(O)[C@@H]1O (stereo partly drawn) [3-O-2'-(N',N'-dimethylaminoethyl)-D-glucopyranose]",log reduction at 3 µg/mL,[1]; [3],2.5
same,log reduction at 10 µg/mL,[1]; [4],3.5
"CC(CO[C@H]1[C@H](O)[C@@H](CO)OC(O)[C@@H]1O)CN(C)C (stereo partly drawn) [3-O-3'-(2',N',N'-trimethylamino-n-propyl)-D-glucopyranose]",log reduction at 3 µg/mL,[1]; [3],2.4
same,log reduction at 10 µg/mL,[1]; [4],3
"CN(C)CCCO[C@H]1[C@H](O)[C@@H](CO)OC(O)[C@@H]1O (stereo partly drawn) [3-O-3'-(N',N'-dimethylamino-n-propyl)-D-glucopyranose]",relative antiviral potency,"[1]; influenza A2, among tested derivatives",the most potent effect
same,log reduction at 3 µg/mL,[1],3.2
same,log reduction at 10 µg/mL,[1],4
same,relative antiviral potency,herpes simplex virus,the most potent derivative
same,Frequency of Normal Lungs (<170 mg),"[2]; normal 12/21, infected control 1/21",13/21
same,Average Lung Weight,"[2]; beginning 24 hours post-infection, 50% of drug 1,2-acetone-blocked, normal 160, infected control 258",177 mg
same,% Disease Suppression,"[2]; beginning 24 hours post-infection, lung weight",82%
same,% of Population Protected,influenza A/PR/8; 10 mg/Kg subcutaneously,14%
same,% Mortality,influenza A/PR/8; 10 mg/Kg subcutaneously,81%
same,Mortality Frequency at 8 Days,influenza A/PR/8; 10 mg/Kg subcutaneously,18/22
same,% of Population Protected,influenza A/PR/8; 40 mg/Kg subcutaneously,23%
same,% Mortality,influenza A/PR/8; 40 mg/Kg subcutaneously,72%
same,Mortality Frequency at 8 Days,influenza A/PR/8; 40 mg/Kg subcutaneously,16/22
same,% of Population Protected,influenza A/PR/8; 160 mg/Kg subcutaneously,50%
same,% Mortality,influenza A/PR/8; 160 mg/Kg subcutaneously,45%
same,Mortality Frequency at 8 Days,influenza A/PR/8; 160 mg/Kg subcutaneously,10/22
"NCCCO[C@H]1[C@H](O)[C@@H](CO)OC(O)[C@@H]1O (stereo partly drawn) [3-O--3'-n-propylamino-D-glucose, 3-O-3'-(n-propylamino)-D-glucopyranose]",IC100,"herpes simplex virus; read-out: Concentration required to exert 100% inhibition of herpes-induced plaque formation, herpes simplex virus, tissue culture",20 µg/mL
"CN1CCC(O[C@H]2[C@H](O)[C@@H](CO)OC(O)[C@@H]2O)CC1 (stereo partly drawn) [3-O--4'-(N--methylpiperidyl)-D-glucose, 3-O-4'-(N-methylpiperidyl)-D-glucopyranose]",log reduction at 3 µg/mL,[1],2.5
same,log reduction at 10 µg/mL,[1],3.5
"CC(CN(C)C)OC[C@H]1OC(O)[C@H](O)[C@@H](O)[C@H]1O (stereo partly drawn) [6-O-2'-(N',N'-dimethylaminopropyl)-D-galactose]",Log Decrease in Infectivity of Virus Inoculum,[1]; [3],0.1 log
same,Log Decrease in Infectivity of Virus Inoculum,[1]; [4],0.5 log
"CN(C)CCCOC[C@H]1OC(O)[C@H](O)[C@@H](O)[C@H]1O (stereo partly drawn) [6-O-3'-(N',N'-dimethylamino-n-propyl)-D-galactopyranose]",log reduction at 3 µg/mL,[1]; [3],1
same,log reduction at 10 µg/mL,[1]; [4],2
"CC(CN(C)C)O[C@H]1O[C@H](CO)[C@@H](O)[C@H](O)[C@H]1O (stereo partly drawn) [α-N,N--dimethylaminoisopropylglucoside, α-N,N-dimethylaminoisopropyl-D-glucoside]",Log Decrease in Infectivity of Virus Inoculum,[1]; [3],1.5 log
same,Log Decrease in Infectivity of Virus Inoculum,[1]; [4],2.5 log
same,Concentration required to exert 50% inhibition of herpes-induced plaque formation,herpes simplex virus; [5],10 µg/mL
same,Concentration required to exert 100% inhibition of herpes-induced plaque formation,herpes simplex virus; [5],> 50 µg/mL

# Reference: USRE32268E, “Therapeutic composition and method of therapeutically treating warm blooded animals therewith” (Strategic Medical Research Corp., priority 1983, dated 1986)
